Results from patent publication US11226337B2, “Chemoproteomic profiling of protein electrophilic and oxidative post-translational modifications” (Zenagem, LLC, priority 2017, dated 2022).

Legend:
AMD1 [1] = target: T1, AMD1 (Homo sapiens, UniProt P17707); assay: expression and probe 1 labelling of endogenous AMD1 after DFMO; type: cell-based; conditions: HEK293T, DFMO 5 mM 48 h, 10 μM L-methionine
T1 construct: Full-length genes encoding three probe 1- and one probe 2-targeted proteins were amplified from a cDNA library; expressed in transfected cells; host or cells: HEK293T
T1 sequence (P17707 68-334 limits assumed): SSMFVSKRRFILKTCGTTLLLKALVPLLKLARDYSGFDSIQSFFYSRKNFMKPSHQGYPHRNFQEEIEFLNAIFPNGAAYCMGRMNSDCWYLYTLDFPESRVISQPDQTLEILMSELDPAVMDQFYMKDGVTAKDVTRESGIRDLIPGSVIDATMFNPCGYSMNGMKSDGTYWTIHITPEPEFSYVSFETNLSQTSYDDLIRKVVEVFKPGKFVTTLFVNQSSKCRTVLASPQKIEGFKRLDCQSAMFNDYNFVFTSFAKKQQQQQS
T1 sequence (P17707 1-67 limits assumed): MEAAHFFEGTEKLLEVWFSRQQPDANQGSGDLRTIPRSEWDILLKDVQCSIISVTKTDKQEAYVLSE
Method: To enhance expression and labelling of endogenous AMD1, HEK293T cells were treated with difluoromethylornithine (DFMO; purchased from Santa Cruz Biotechnology) (5 mM) for 48 h in RPMI 1640 media (Fisher Scientific, A14517-01) containing 10 μM L-methionine. Cells were washed and treated with probe 1 in the absence of methionine. […] Probe 1-labelling, proteome preparation, fluorophore conjugation, gel-based analysis and western blotting were performed as described above in Examples 2 and 3. Band intensities were quantified using ImageJ software^75. […] Briefly, about 0.5 mg soluble proteomes isolated from probe 1-labelled AMD1-transfected cells grown in low versus high methionine were each diluted to 1 mL with 50 mM Na-HEPES buffer (pH 7.5) supplemented with 500 mM NaCl and 1% Triton X-100. Each proteome was incubated overnight at 4° C. by rotation with a pre-equilibrated slurry (25 μL resin (CV), anti-FLAG M2 affinity gel, Sigma). The resin was washed by resuspension and centrifugation with the same buffer supplemented with 500 mM NaCl (5×1 mL) followed by 100 mM NaCl (2×1 mL). The bound AMD1 protein was eluted in 100 μL of low salt buffer containing […] (FLAG)3 peptide [DYKDHD-(G)-DYKDHD-(I)-DYKD4K] (SEQ ID NO: 47). To prevent contamination from the excess (FLAG)3 peptide in the elution, the protein was purified by gel. […]

AMD1 [2] = target: T1, AMD1; conditions: literature statement; cited from earlier work

## difluoromethylornithine [DFMO]
AMD1 [1]
  change in endogenous active AMD1 detected by probe 1: DMFO-induced changes in the endogenous concentration of active AMD1
AMD1 [2]
  effect on expression of AMD1: increase the expression of AMD1
